Counter-ions that a name gives are not always drawn.
Key:
[1] = test system: BV-2 mouse microglial cells; assay: NO (nitric oxide) inhibitory activity in LPS-treated microglial cells; type: cell-based; conditions: LPS 1 μg/ml, 24 hours, read-out: Amount of NO (% of control)
CYP2C19 = CYP2C19 (Homo sapiens, UniProt P33261); assay: in vitro; conditions: human liver microsomes, pH 7.4, probe S-mephenytoin 100 μM (in five-substrate cocktail)
CYP2D6 = CYP2D6 (Homo sapiens, UniProt P10635); assay: in vitro; conditions: human liver microsomes, pH 7.4, probe Dextromethorphan 5 μM (in five-substrate cocktail)
CYP2D6, sequence (P10635 whole entry): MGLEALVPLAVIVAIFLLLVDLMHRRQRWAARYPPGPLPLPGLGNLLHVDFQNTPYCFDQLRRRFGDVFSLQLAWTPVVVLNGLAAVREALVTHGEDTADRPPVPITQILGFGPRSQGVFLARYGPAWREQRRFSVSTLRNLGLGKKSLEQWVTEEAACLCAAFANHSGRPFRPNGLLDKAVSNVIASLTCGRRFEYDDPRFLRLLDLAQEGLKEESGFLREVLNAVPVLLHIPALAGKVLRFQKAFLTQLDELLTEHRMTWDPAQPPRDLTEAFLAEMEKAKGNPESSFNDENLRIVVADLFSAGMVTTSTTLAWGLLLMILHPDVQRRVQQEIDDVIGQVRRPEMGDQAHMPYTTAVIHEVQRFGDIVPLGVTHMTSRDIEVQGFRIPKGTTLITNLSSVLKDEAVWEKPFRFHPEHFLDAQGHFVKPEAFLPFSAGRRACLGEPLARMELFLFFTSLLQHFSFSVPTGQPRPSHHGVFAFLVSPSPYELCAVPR

CYP2C9 = CYP2C9 (Homo sapiens, UniProt P11712); assay: in vitro; conditions: human liver microsomes, pH 7.4, probe Diclofenac 10 μM (in five-substrate cocktail)
CYP2C9, sequence (P11712 whole entry): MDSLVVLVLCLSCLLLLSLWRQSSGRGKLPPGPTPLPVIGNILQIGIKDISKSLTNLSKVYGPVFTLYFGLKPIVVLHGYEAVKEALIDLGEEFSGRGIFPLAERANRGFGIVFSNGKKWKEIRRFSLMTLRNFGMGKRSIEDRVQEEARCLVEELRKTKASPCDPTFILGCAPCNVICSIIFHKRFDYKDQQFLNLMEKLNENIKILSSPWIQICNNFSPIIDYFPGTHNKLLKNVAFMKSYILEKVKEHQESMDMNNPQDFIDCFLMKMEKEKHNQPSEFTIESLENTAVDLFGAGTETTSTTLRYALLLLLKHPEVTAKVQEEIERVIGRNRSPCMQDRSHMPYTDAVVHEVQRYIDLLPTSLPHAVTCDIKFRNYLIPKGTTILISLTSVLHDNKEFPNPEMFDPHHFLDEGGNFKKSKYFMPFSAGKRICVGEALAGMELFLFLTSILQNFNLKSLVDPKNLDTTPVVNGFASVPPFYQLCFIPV

CYP1A2 = biological target: T1, CYP1A2 (Homo sapiens, UniProt P05177); assay: in vitro; conditions: human liver microsomes, pH 7.4, probe Phenacetin 50 μM (in five-substrate cocktail)
T1 sequence (P05177 1-516): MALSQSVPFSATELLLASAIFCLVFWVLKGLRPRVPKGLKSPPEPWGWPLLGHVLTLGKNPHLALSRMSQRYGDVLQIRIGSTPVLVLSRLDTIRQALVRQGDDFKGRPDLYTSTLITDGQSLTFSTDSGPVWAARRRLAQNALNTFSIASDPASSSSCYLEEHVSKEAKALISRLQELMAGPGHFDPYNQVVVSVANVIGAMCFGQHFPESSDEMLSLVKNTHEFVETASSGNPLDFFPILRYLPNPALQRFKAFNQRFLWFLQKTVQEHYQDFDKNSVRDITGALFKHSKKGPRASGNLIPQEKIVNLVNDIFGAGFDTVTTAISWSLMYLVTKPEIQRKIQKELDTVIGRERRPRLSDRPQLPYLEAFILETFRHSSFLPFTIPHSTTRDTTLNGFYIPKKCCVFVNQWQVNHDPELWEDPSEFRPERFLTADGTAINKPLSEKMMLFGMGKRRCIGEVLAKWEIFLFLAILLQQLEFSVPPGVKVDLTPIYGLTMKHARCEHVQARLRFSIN

CYP3A4 = CYP3A4 (Homo sapiens, UniProt P08684); assay: in vitro; conditions: human liver microsomes, pH 7.4, probe Midazolam […] (in five-substrate cocktail)
CYP3A4, sequence (P08684 whole entry): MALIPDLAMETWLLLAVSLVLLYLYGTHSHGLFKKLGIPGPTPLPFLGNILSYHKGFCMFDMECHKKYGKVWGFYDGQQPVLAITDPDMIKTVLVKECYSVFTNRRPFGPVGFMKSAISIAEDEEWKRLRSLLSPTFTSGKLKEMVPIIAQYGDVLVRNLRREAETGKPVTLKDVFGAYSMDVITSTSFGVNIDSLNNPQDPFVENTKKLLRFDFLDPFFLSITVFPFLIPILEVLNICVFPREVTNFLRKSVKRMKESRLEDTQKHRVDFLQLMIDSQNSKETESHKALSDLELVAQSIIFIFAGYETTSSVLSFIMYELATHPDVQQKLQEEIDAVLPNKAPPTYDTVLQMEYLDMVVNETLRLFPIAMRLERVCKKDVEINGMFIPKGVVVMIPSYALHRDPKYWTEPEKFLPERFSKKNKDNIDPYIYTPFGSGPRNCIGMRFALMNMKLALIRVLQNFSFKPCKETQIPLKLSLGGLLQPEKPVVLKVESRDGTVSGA

[2] = Metabolic stability using liver microsomes; type: in vitro ADME, Human; conditions: for drug remaining after incubation with microsomes: after 30 minutes; for Human (% remaining): liver microsomes, 30 minutes at 37° C.
Nrf2 = Nrf2 functional cell-based assay (DiscoveRx), luminescence; conditions: U2OS cells; for EC50: 6 hours incubation, read-out: Nrf2 activation EC50
[3] = known; cited from earlier work
[4] = Metabolic stability using liver microsomes; type: in vitro ADME, Mouse; conditions: 30 minutes
[5] = Metabolic stability using liver microsomes; type: in vitro ADME, Rat; conditions: 30 minutes
Protocol: Therefore, in order to predict the extent of drug metabolism by the liver, the main organ for drug metabolism, through in vitro experiments, the metabolic stability of drugs was evaluated using liver microsomes.
Then, an NADPH regeneration system solution was added thereto and the mixed solution was incubated at 37° C. for 30 minutes.

CYP2C19, sequence (P33261 whole entry): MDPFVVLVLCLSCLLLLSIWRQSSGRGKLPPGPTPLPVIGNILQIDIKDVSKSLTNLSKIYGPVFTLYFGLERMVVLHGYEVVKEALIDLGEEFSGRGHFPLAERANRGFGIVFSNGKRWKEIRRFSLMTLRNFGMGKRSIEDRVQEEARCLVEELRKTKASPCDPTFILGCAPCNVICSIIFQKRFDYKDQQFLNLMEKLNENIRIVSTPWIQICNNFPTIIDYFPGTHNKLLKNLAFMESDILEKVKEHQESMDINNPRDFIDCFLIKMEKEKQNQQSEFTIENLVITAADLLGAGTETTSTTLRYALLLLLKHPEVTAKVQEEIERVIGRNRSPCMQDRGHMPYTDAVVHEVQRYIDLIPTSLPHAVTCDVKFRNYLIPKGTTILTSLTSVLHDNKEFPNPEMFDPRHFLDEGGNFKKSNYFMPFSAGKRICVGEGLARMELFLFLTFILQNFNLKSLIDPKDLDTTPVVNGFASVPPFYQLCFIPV

SMILES	activity at 10 µM [1] [%]	activity at 15 min, 10 µM (CYP2C19) [%]	activity at 15 min, 10 µM (CYP2D6) [%]	activity at 15 min, 10 µM (CYP2C9) [%]	activity at 15 min, 10 µM (CYP1A2) [%]	activity at 15 min, 10 µM (CYP3A4) [%]	further results
N=S(=O)(/C=C/c1ccccn1)c1ccccc1F (stereo not drawn) [Compound 1-1, (E)-(2-Fluorophenyl)(imino)(2-(pyridin-2-yl)vinyl)-λ^6-sulfanone]	< 3	66.9	82.7	85.7	87.8	121	activity at 0.1 µM [1]: 97%; activity at 1 µM [1]: 74.2%
COc1ccc(S(=N)(=O)/C=C/c2ccccn2)cc1 (stereo not drawn) [Compound 1-2, (E)-Imino(4-methoxyphenyl)(2-(pyridin-2-yl)vinyl)-λ^6-sulfanone]	35.8	70.4	98.6	96.6	88.9	97.5	drug remaining after incubation with microsomes [2]: remained at a high concentration; activity at 0.1 µM [1]: 110%; activity at 1 µM [1]: 115%
N=S(=O)(/C=C/c1ncccc1Cl)c1ccccc1Cl (stereo not drawn) [Compound 1-4, (E)-(2-chlorophenyl)(2-(3-chloropyridin-2-yl)vinyl)(imino)-λ^6-sulfanone]							drug remaining after incubation with microsomes [2]: remained at a high concentration
N=S(=O)(/C=C/c1ncccc1F)c1ccccc1F (stereo not drawn) [Compound 1-5, (E)-(2-fluorophenyl)(2-(3-fluoropyridin-2-yl)vinyl)(imino)-λ^6-sulfanone]	7.96						activity at 0.1 µM [1]: 101%; activity at 1 µM [1]: 69.2%
COc1ccccc1S(=N)(=O)/C=C/c1ncccc1Cl (stereo not drawn) [Compound 1-8, (E)-(2-(3-chloropyridin-2-yl)vinyl)(imino)(2-methoxyphenyl)-λ^6-sulfanone]	14.2	24.4	93.9	192	84.4	78.4	
COc1ccc(S(=N)(=O)/C=C/c2ncccc2Cl)cc1 (stereo not drawn) [Compound 1-10, (E)-(2-(3-chloropyridin-2-yl)vinyl)(imino)(4-methoxyphenyl)-λ^6-sulfanone]	< 3	6	112	133	103	109	
N=S(=O)(/C=C/c1cccnc1)c1ccccc1Cl (stereo not drawn) [Compound 1-12, (E)-(2-chlorophenyl)(imino)(2-(pyridin-3-yl)vinyl)-λ^6-sulfanone]		68.2	94.4	87.1	86.8	104	EC50 (Nrf2): > 10 µM
N=S(=O)(/C=C/c1cccnc1Cl)c1ccccc1Cl (stereo not drawn) [Compound 1-13, (E)-(2-chlorophenyl)(2-(2-chloropyridin-3-yl)vinyl)(imino)-λ^6-sulfanone]	9.26	27.8	95.7	169	93.3	59.8	
N=S(=O)(/C=C/c1cccc(Cl)c1)c1ccccn1 (stereo not drawn) [Compound 1-16, (E)-(3-chlorostyryl)(imino)(pyridin-2-yl)-λ^6-sulfanone]	< 3						
N=S(=O)(/C=C/c1ccccc1C(F)(F)F)c1ccccn1 (stereo not drawn) [Compound 1-17, (E)-imino(pyridin-2-yl)(2-(trifluoromethyl)styryl)-λ^6-sulfanone]	< 3						
N=S(=O)(/C=C/c1ccccc1OC(F)(F)F)c1ccccn1 (stereo not drawn) [Compound 1-18, (E)-imino(pyridin-2-yl)(2-(trifluoromethoxy)styryl)-λ^6-sulfanone]	< 3						
N=S(=O)(/C=C/c1ccc(Cl)cc1)c1ccccn1 (stereo not drawn) [Compound 1-20, (E)-(4-chlorostyryl)(imino)(pyridin-2-yl)-λ^6-sulfanone]	20.3						
C[Si](C)(C)N=S(=O)(/C=C/c1ccccc1Cl)c1ccncc1F (stereo not drawn) [Compound 1-46, (E)-(2-chlorostyryl)(3-fluoropyridin-4-yl)((trimethylsilyl)imino)-λ^6-sulfanone]							Nrf2 activation effect compared with Sulforaphane (Nrf2): better Nrf2 activation effect than Sulforaphane
N=S(=O)(/C=C/c1ncccc1F)c1ccc(OCCCN2CCOCC2)cn1 (stereo not drawn) [Compound 1-53, (E)-(2-(3-fluoropyridin-2-yl)vinyl)(imino)(5-(3-morpholinopropoxy)pyridin-2-yl)-λ^6-sulfanone]							EC50 (Nrf2): 0.604 µM
COc1ccccc1S(=O)(/C=C/c1ccccc1Cl)=NC#N (stereo not drawn) [Compound 1-57, (E)-N-((2-chlorostyryl)(2-methoxyphenyl)(oxo)-λ^6-sulfanylidene)cyanamide]							Nrf2 activation effect compared with Sulforaphane (Nrf2): better Nrf2 activation effect than Sulforaphane
COc1ccccc1S(=O)(/C=C/c1ncccc1Cl)=NC#N (stereo not drawn) [Compound 1-58, (E)-N-((2-(3-chloropyridin-2-yl)vinyl)(2-methoxyphenyl)(oxo)-λ^6-sulfaneylidene)cyanamide]							EC50 (Nrf2): 0.658 µM
COC(=O)/C=C/C(=O)OC [DMF, Dimethyl fumarate, reference compound]	16.3						activity at 0.1 µM [1]: 113%; activity at 1 µM [1]: 60%
C[S+]([O-])CCCCN=C=S (stereo not drawn) [Sulforaphane, 1-isothiocyanato-4-methylsulfinylbutane]							concentration at which high toxicity is exhibited [3]: ≥ 5 M
O=S(=O)(/C=C/c1ncccc1Cl)c1ccccc1F [drawing 157, reference compound]		16.6	86.1	45.5	95.8	105	
O=S(=O)(/C=C/c1ncccc1Cl)c1ccccc1F [drawing 173]							Human (% remaining) [2]: 72 % remaining; Mouse (% remaining) [4]: 19 % remaining; Rat (% remaining) [5]: 23 % remaining
O=S(=O)(/C=C/c1ccccn1)c1ccccc1F [reference compound]		38.4	92.4	230	93	104	
COc1ccccc1S(=O)(=O)/C=C/c1ncccc1Cl [reference compound]				209			
COc1ccc(S(=O)(=O)/C=C/c2ncccc2Cl)cc1 [reference compound]				196			
O=S(=O)(/C=C/c1cccnc1)c1ccccc1Cl [reference compound]		33.4	101	118	84	74.2	
O=S(=O)(/C=C/c1cccnc1Cl)c1ccccc1Cl [reference compound]		28.3	93.8	88.7	85.6	81.2	
O=S(=O)(/C=C/c1ncccc1Cl)c1ccccc1Cl [reference compound]							Human (% remaining) [2]: 66 % remaining; Mouse (% remaining) [4]: 4.5 % remaining
